“Also recorded” adds a separate entry of the source. Read-outs that look alike come from different tables or passages of the source.

For test [1], the system named is ion channel TMEM175 localized on lysosomes or endolysosomes vesicles. To be noted: cited from earlier work.
For test [2] the test system is unchanged. Description: K+ ion channel TMEM175 transporting activity by endolysosome vesicle morphological change (Example 8). The format is biochemical. To be noted: role: substrate, KCl 100 mM inside, 1 mM outside with 200 mM sucrose. On the procedure:
Before starting acquisition, extracellular endolysosome vesicles are charged with K^+ ions thanks to a bath sonicator and an extracellular solution (210 mOsm/L) containing 100 mM of KCl and 10 mM of Hepes, pH 7.2. Then, extracellular endolysosome vesicles are seeded on a glass plate for observation. Before starting acquisition, extravesicular aqueous solution is removed to be changed when starting acquisition.
Once the acquisition is started, the extracellular organelle vesicle, held by the micropipette is passed through an extra-vesicular aqueous solution (200 mOsm/L) containing 1 mM of KCl and 200 mM of sucrose. Contacting very small amount of potassium ions with said extracellular organelle vesicle generates a concentration gradient of K^+ between the inside and the outside of the vesicles. […] This innovative process allows to examine the transporting activity of the ion channel TMEM175 localized on lysosomes or endolysosomes vesicles in absence and/or in presence of an antagonist (4-AP) and/or agonist (DCPIB).

In test [3] the test system is giant organelles from the ER. Description: Giant organelle formation after pre-treatment of cells (ER). The format is cell-based. To be noted: pre-treatment between 1 and 90 min before swelling. The source says:
(§1) According to a particular embodiment of the first process, prior to the generation of giant extracellular organelle vesicles, cells may be treated with molecules to prevent protein degradation, modulate biochemical reactions on organelles, etc., so that giant extracellular organelle vesicles can bear specific biochemical properties. The metabolic conditions and the architecture of cells and its organelles can thus be further modified before step v), by chemicals and/or by modifying the expression level of proteins impacting the architecture of cells and/or their organelles and/or the metabolic conditions. […] These manipulations enable controlling the size of the recovered giant extracellular organelle vesicles and their contact: tuning the surface-to-volume ratio, prior to the osmotic swelling, impacting the future recovered giant organelle size, with adapted osmotic swelling. […]

Test [4] deals with giant extracellular organelles vesicles coming from autophagosomes. The test can be described thus: Giant organelle formation after pre-treatment of cells (autophagosomes). In kind it is cell-based. To be noted: added before swelling and extraction.
Description: as §1

The subject of test [5] is giant extracellular organelles vesicles from endosome, lysosome, autolysosome and multivesicular body. Description: Giant organelle formation after pre-treatment of cells (endosome, lysosome, autolysosome, multivesicular body). The format is cell-based. To be noted: added between 12 to 24 hours before swelling.
Description: as §1

In test [6] the test system is ion pump SERCA localized on Endoplasmic Reticulum vesicles. Description: Ca2+ pump transporting activity by morphological change (deflation/re-swelling) of ER extracellular organelle vesicles (Example 1). To be noted: role: substrate. The format is biochemical. On the procedure: An initial HKM buffer was prepared with 50 mM Hepes (known as 2-[4-(2-hydroxyethyl)piperazin-1-yl]ethanesulfonic acid), 120 mM potassium acetate, and 1 mM MgCl2 (in Milli-Q water) at pH 7.4. Said initial HKM buffer has an osmolarity of 280±15 mOsm/L.
Then, a membrane tension is applied on cells so as to produce extracellular organelle vesicles without lysing them. At that step, the extracellular organelle vesicles are released (or produced) thanks to the lysis and the removal of the plasma membrane. The membrane tension is carried out by micro-manipulation of the cells under confocal microscope thanks to a micropipette aspiration technique. Micropipette radius is around 1 μm. Thanks to a slight aspiration, a bilayer tongue of the plasma membrane was sucked into the micropipette. The aspiration is then increased at an approximate rate of 10 mbar/min, causing a proportional increase in the bilayer surface tension. At a certain applied tension (e.g. surface tension<0.75 mN/m), the plasma membrane ruptured thanks to a pore opening in the plasma membrane and the extracellular organelle vesicles are released (or extracted).
After extraction, one or more extracellular organelle vesicles are isolated using a micropipette. The micropipettes are used to hold a vesicle during the following methods of the present invention. Before the addition of molecules (ions, sugars or drug molecules), an acquisition is launched to observe the initial size of the vesicle.
Once the acquisition is started, the extracellular organelle vesicle, held by the micropipette is passed through an aqueous solution containing CaCl2 (60 mOsm/L) and ATP (100 μM). Contacting calcium ions with said extracellular organelle vesicle increases the osmolarity of the extravesicular aqueous medium. […] This innovative process allows to examine the transporting activity of the ion pump SERCA localized on Endoplasmic Reticulum vesicles.
FIG. 1 A) represents an extracellular organelle vesicle of endoplasmic reticulum (ER) which is maintained thanks to a micropipette into a HKM diluted buffer (20 mOsm/L) as an extravesicular aqueous medium. This extracellular organelle vesicle has been isolated thanks to an ER resident protein (KDEL), over-expressed by COS7 cells, before organelle vesicles extraction.
At t=0s, CaCl2 (60 mOsm/L) and ATP (100 μM) were added. At t=20s, the ER extracellular organelle vesicle is deflated: it reached its minimum volume (Vi1) and its associated maximum fluorescence signal (Fl1).
Once the acquisition is started, the ER extracellular organelle vesicle, held by the micropipette is passed through an aqueous solution containing sucrose (60 mOsm). […] Sucrose can thus be used as a control or reference in the method of the present invention.

Test [7] relates to SERCA pump. To be noted: role: inhibitor; cited from earlier work.
The subject of test [8] is SERCA pump. Description: Screening of candidate compounds modulating SERCA activity by ER vesicle re-swelling (Example 4). To be noted: role: inhibitor; for re-swelling process in presence of inhibitor: thapsigargin 10 μM in DMSO, 10 min, CaCl2 60 mOsm/L, ATP 1 mM / 100 μM, compared to vesicle not incubated. In kind it is biochemical. On the procedure: Once the ER extracellular organelle vesicles are extracted, thapsigargin (10 μM) in DMSO, is added to the medium. […] After 10 minutes of incubation with thapsigargin, and once the acquisition is started, the extracellular organelle vesicle, held by the micropipette is passed through an aqueous solution containing CaCl2 (60 mOsm/L) and ATP (1 mM).
FIG. 6 A) represents an ER extracellular organelle vesicle maintained thanks to a micropipette into a HKM diluted buffer (20 mOsm/L). This extracellular organelle vesicle has been isolated thanks to an ER resident protein, over-expressed by COS7 cells, before organelle vesicles extraction. This extracellular organelle vesicle was incubated with thapsigargin at 10 μM during 10 min.
At t=0s, CaCl2 (60 mOsm/L) and ATP (100 μM) were added. Dotted line circles all correspond to the size of the extracellular organelle vesicle before the beginning of the process.

Take `Nc1ccncc1` [4-AP]: the “mode of action on TMEM175” value in test [1] (role: inhibitor) is “antagonist”.
For the compound `CCCCC1(C2CCCC2)Cc2cc(OCCCC(=O)O)c(Cl)c(Cl)c2C1=O` (stereo not shown) [DCPIB], the “mode of action on TMEM175” value in test [1] (role: activator) is recorded as “agonist”.
As to `[Cl-].[K+]` [KCl], the “deflation of endolysosome vesicle” value in test [2] was “the vesicle deflates in a few seconds”. In addition, in test [2] (following minutes), the “re-swelling process of endolysosome vesicle” value was “a re-swelling process is not observed”.
Regarding `C/C1=C/C(=O)O[C@@H]2C[C@@H](CC[C@H](C)/C=C\C=C\CC1)O[C@@](O)([C@@H]1CSC(=O)N1)C2` [Latrunculin A], in test [3], the “effect on giant organelle formation from the ER” value is “allows the formation of bigger giant organelles from the ER”.
Turning to `CO/C1=C\C(C)=C\[C@@H](C)[C@@H](O)[C@@H](C)C/C(C)=C/C=C/[C@H](OC)[C@@H]([C@@H](C)[C@@H](O)[C@H](C)C2(O)C[C@@H](O)[C@H](C)[C@@H](C(C)C)O2)OC1=O` (stereo partly shown) [bafylomicin], in test [4], the “effect on giant extracellular organelle vesicles from autophagosomes” value is reported as “allows to obtain more giant extracellular organelles vesicles coming from autophagosomes”.
Regarding `COC(=O)Nc1nc2ccc(C(=O)c3cccs3)cc2[nH]1` [nocodazole], the “effect on giant organelle formation from the ER” value in test [3] is listed as “allows the formation of bigger giant organelles from the ER”.
`CO[C@H]1C[C@@H]2CC[C@@H](C)[C@@](O)(O2)C(=O)C(=O)N2CCCC[C@H]2C(=O)O[C@H]([C@H](C)C[C@@H]2CC[C@@H](O)[C@H](OC)C2)CC(=O)[C@H](C)/C=C(\C)[C@@H](O)[C@@H](OC)C(=O)[C@H](C)C[C@H](C)/C=C/C=C/C=C/1C` [rapamycin]: in test [5], the “effect on giant extracellular organelle vesicle formation” value is “allows to form bigger giant extracellular organelles vesicles”.
Turning to `OC[C@H]1O[C@@](CO)(O[C@H]2O[C@H](CO)[C@@H](O)[C@H](O)[C@H]2O)[C@@H](O)[C@@H]1O` [sucrose], the “re-swelling process of vesicle” value in test [6] (60 mOsm/L, following minutes, CaCl2 with ATP (100 μM), sucrose as control) is “no re-swelling is observed; also recorded: no re-swelling process is visible”. Also, the “deflation of vesicle on contacting” value in test [6] (CaCl2 60 mOsm/L with ATP (100 μM), or sucrose 60 mOsm without ATP stated, vesicle internal 20 mOsm/L, COS7 ER vesicle) is “deflates in a few seconds”. Further, in test [6] (sucrose 60 mOsm, FIG. 2), the “transport inside the ER extracellular organelle vesicle” value was “not transported inside the ER extracellular organelle vesicle”.
As to `C/C=C(/C)C(=O)O[C@H]1C(C)=C2[C@H]([C@@H]1OC(=O)CCCCCCC)[C@@](C)(OC(C)=O)C[C@H](OC(=O)CCC)[C@@]1(O)[C@H]2OC(=O)[C@@]1(C)O` [thapsigargin], the “known activity on the SERCA pump” value with SERCA pump [7] is “known inhibitor of the SERCA pump”. Besides, the “Vf/Vi1 and Vf/Vi versus reference ratio” value with SERCA pump [8] (reference ratio obtained without thapsigargin) was “Vf/Vi1<Vf,ref/Vi1,ref, and Vf/Vi<Vf,ref/Vi,ref”. Besides, the “re-swelling process in presence of inhibitor” value in the test on SERCA pump [8] is reported as “the reswelling process is decreased or not present”; in the test on SERCA pump [8] (listed as thaspigargin) it was “the re-swelling process is almost off”. Also, in the test on SERCA pump [8] (thapsigargin 10 μM, FIGS. 1 and 6), the “effect on the transporting activity of SERCA with respect to Ca^2+” value is “inhibitory effect”.
